# Organism: Rattus norvegicus
# Test: Open TG-GATES - Regimen: Daily Repeat
# Assay type: toxicity, organism-based, Sprague-Dawley
# Parameters: regimen Daily Repeat, gender Male, age 6 weeks
# Settings: in vivo, po, 100 mg/kg, route gavage, dose level Low; for APTT / Bas / Eos / Fbg / Hb / Ht / Lym / MCH / MCHC / MCV / Mono / Neu / PT / Plat / RBC / Ret / WBC: tissue Blood; for KIDNEY_L / KIDNEY_R / KIDNEY_TOTAL: tissue Kidney; for LIVER: tissue Liver; for A/G / ALP / ALT / AST / BUN / CRE / Ca / Cl / DBIL / GLC / IP / K / LDH / Na / PL / RALB / TBIL / TC / TG / TP / gamma-GTP: tissue Plasma
smiles,measurement,setting,value
O=C(O)c1cc(/N=N/c2ccc(S(=O)(=O)Nc3ccccn3)cc2)ccc1O [SULFASALAZINE],TERMINAL_BW,"72 h, time 3 day",236.6 g
same,APTT,"72 h, time 3 day",18.4 s
same,Bas,"72 h, time 3 day",0%
same,Eos,"72 h, time 3 day",1%
same,Fbg,"72 h, time 3 day",226.6 mg/dL
same,Hb,"72 h, time 3 day",13.6 g/dL
same,Ht,"72 h, time 3 day",39.7%
same,Lym,"72 h, time 3 day",79.8%
same,MCH,"72 h, time 3 day",21.5 pg
same,MCHC,"72 h, time 3 day",34.3%
same,MCV,"72 h, time 3 day",62.6 fL
same,Mono,"72 h, time 3 day",3.2%
same,Neu,"72 h, time 3 day",14.4%
same,PT,"72 h, time 3 day",12.6 s
same,Plat,"72 h, time 3 day",129.7 x10_4/uL
same,RBC,"72 h, time 3 day",634.2 x10_4/ul
same,Ret,"72 h, time 3 day",6.4%
same,WBC,"72 h, time 3 day",114.1 x10_2/uL
same,KIDNEY_L,"72 h, time 3 day",1 g
same,KIDNEY_R,"72 h, time 3 day",1 g
same,KIDNEY_TOTAL,"72 h, time 3 day",2 g
same,LIVER,"72 h, time 3 day",10.9 g
same,A/G,"72 h, time 3 day",1.5
same,ALP,"72 h, time 3 day",979.2 IU/L
same,ALT,"72 h, time 3 day",44.4 IU/L
same,AST,"72 h, time 3 day",86.8 IU/L
same,BUN,"72 h, time 3 day",16.4 mg/dL
same,CRE,"72 h, time 3 day",0.4 mg/dL
same,Ca,"72 h, time 3 day",10.9 mg/dL
same,Cl,"72 h, time 3 day",103 meq/L
same,DBIL,"72 h, time 3 day",0.09 mg/dL
same,GLC,"72 h, time 3 day",201 mg/dL
same,IP,"72 h, time 3 day",7.4 mg/dL
same,K,"72 h, time 3 day",4.2 meq/L
same,LDH,"72 h, time 3 day",286.8 IU/L
same,Na,"72 h, time 3 day",140.4 meq/L
same,PL,"72 h, time 3 day",154.6 mg/dL
same,RALB,"72 h, time 3 day",3.3 g/dL
same,TBIL,"72 h, time 3 day",0.1 mg/dL
same,TC,"72 h, time 3 day",76.8 mg/dL
same,TG,"72 h, time 3 day",83.4 mg/dL
same,TP,"72 h, time 3 day",5.6 g/dL
same,gamma-GTP,"72 h, time 3 day",1.4 IU/L
same,TERMINAL_BW,"[…], time 7 day",262.7 g
same,TERMINAL_BW,"[…], time 14 day",309.6 g
same,TERMINAL_BW,"[…], time 28 day",389.8 g
same,APTT,"[…], time 7 day",19.1 s
same,Bas,"[…], time 7 day",0%
same,Eos,"[…], time 7 day",1%
same,Fbg,"[…], time 7 day",216.2 mg/dL
same,Hb,"[…], time 7 day",13.8 g/dL
same,Ht,"[…], time 7 day",39.9%
same,Lym,"[…], time 7 day",82%
same,MCH,"[…], time 7 day",21.1 pg
same,MCHC,"[…], time 7 day",34.5%
same,MCV,"[…], time 7 day",61.3 fL
same,Mono,"[…], time 7 day",1.8%
same,Neu,"[…], time 7 day",13.6%
same,PT,"[…], time 7 day",12.5 s
same,Plat,"[…], time 7 day",116 x10_4/uL
same,RBC,"[…], time 7 day",651.8 x10_4/ul
same,Ret,"[…], time 7 day",5.1%
same,WBC,"[…], time 7 day",110 x10_2/uL
same,APTT,"[…], time 14 day",19.4 s
same,Bas,"[…], time 14 day",0%
same,Eos,"[…], time 14 day",1%
same,Fbg,"[…], time 14 day",214 mg/dL
same,Hb,"[…], time 14 day",14.5 g/dL
same,Ht,"[…], time 14 day",41.3%
same,Lym,"[…], time 14 day",79.2%
same,MCH,"[…], time 14 day",21.2 pg
same,MCHC,"[…], time 14 day",35.1%
same,MCV,"[…], time 14 day",60.4 fL
same,Mono,"[…], time 14 day",2.6%
same,Neu,"[…], time 14 day",16.2%
same,PT,"[…], time 14 day",12.5 s
same,Plat,"[…], time 14 day",107.7 x10_4/uL
same,RBC,"[…], time 14 day",684.4 x10_4/ul
same,Ret,"[…], time 14 day",4.6%
same,WBC,"[…], time 14 day",116.3 x10_2/uL
same,APTT,"[…], time 28 day",19.7 s
same,Bas,"[…], time 28 day",0%
same,Eos,"[…], time 28 day",1%
same,Fbg,"[…], time 28 day",231 mg/dL
same,Hb,"[…], time 28 day",15.1 g/dL
same,Ht,"[…], time 28 day",42.4%
same,Lym,"[…], time 28 day",81.2%
same,MCH,"[…], time 28 day",19.8 pg
same,MCHC,"[…], time 28 day",35.6%
same,MCV,"[…], time 28 day",55.6 fL
same,Mono,"[…], time 28 day",2.4%
same,Neu,"[…], time 28 day",14.6%
same,PT,"[…], time 28 day",12.6 s
same,Plat,"[…], time 28 day",105.8 x10_4/uL
same,RBC,"[…], time 28 day",764.8 x10_4/ul
same,Ret,"[…], time 28 day",3.2%
same,WBC,"[…], time 28 day",113.7 x10_2/uL
same,KIDNEY_L,"[…], time 7 day",1.1 g
same,KIDNEY_R,"[…], time 7 day",1.1 g
same,KIDNEY_TOTAL,"[…], time 7 day",2.2 g
same,KIDNEY_L,"[…], time 14 day",1.2 g
same,KIDNEY_R,"[…], time 14 day",1.2 g
same,KIDNEY_TOTAL,"[…], time 14 day",2.3 g
same,KIDNEY_L,"[…], time 28 day",1.4 g
same,KIDNEY_R,"[…], time 28 day",1.4 g
same,KIDNEY_TOTAL,"[…], time 28 day",2.7 g
same,LIVER,"[…], time 7 day",11.9 g
same,LIVER,"[…], time 14 day",13 g
same,LIVER,"[…], time 28 day",15 g
same,A/G,"[…], time 7 day",1.6
same,ALP,"[…], time 7 day",780.6 IU/L
same,ALT,"[…], time 7 day",31.8 IU/L
same,AST,"[…], time 7 day",63.8 IU/L
same,BUN,"[…], time 7 day",16.4 mg/dL
same,CRE,"[…], time 7 day",0.4 mg/dL
same,Ca,"[…], time 7 day",10.6 mg/dL
same,Cl,"[…], time 7 day",103.4 meq/L
same,DBIL,"[…], time 7 day",0.074 mg/dL
same,GLC,"[…], time 7 day",232 mg/dL
same,IP,"[…], time 7 day",7.2 mg/dL
same,K,"[…], time 7 day",3.7 meq/L
same,LDH,"[…], time 7 day",217.4 IU/L
same,Na,"[…], time 7 day",140.6 meq/L
same,PL,"[…], time 7 day",149.6 mg/dL
same,RALB,"[…], time 7 day",3.5 g/dL
same,TBIL,"[…], time 7 day",0.1 mg/dL
same,TC,"[…], time 7 day",72.8 mg/dL
same,TG,"[…], time 7 day",71 mg/dL
same,TP,"[…], time 7 day",5.7 g/dL
same,gamma-GTP,"[…], time 7 day",1.4 IU/L
same,A/G,"[…], time 14 day",1.5
same,ALP,"[…], time 14 day",842.8 IU/L
same,ALT,"[…], time 14 day",34 IU/L
same,AST,"[…], time 14 day",65.6 IU/L
same,BUN,"[…], time 14 day",16.8 mg/dL
same,CRE,"[…], time 14 day",0.5 mg/dL
same,Ca,"[…], time 14 day",10.5 mg/dL
same,Cl,"[…], time 14 day",103.4 meq/L
same,DBIL,"[…], time 14 day",0.1 mg/dL
same,GLC,"[…], time 14 day",203.8 mg/dL
same,IP,"[…], time 14 day",6.5 mg/dL
same,K,"[…], time 14 day",3.6 meq/L
same,LDH,"[…], time 14 day",196 IU/L
same,Na,"[…], time 14 day",141.4 meq/L
same,PL,"[…], time 14 day",153.6 mg/dL
same,RALB,"[…], time 14 day",3.5 g/dL
same,TBIL,"[…], time 14 day",0.2 mg/dL
same,TC,"[…], time 14 day",70.6 mg/dL
same,TG,"[…], time 14 day",133.4 mg/dL
same,TP,"[…], time 14 day",5.8 g/dL
same,gamma-GTP,"[…], time 14 day",1.2 IU/L
same,A/G,"[…], time 28 day",1.3
same,ALP,"[…], time 28 day",678.2 IU/L
same,ALT,"[…], time 28 day",38.8 IU/L
same,AST,"[…], time 28 day",65.8 IU/L
same,BUN,"[…], time 28 day",18 mg/dL
same,CRE,"[…], time 28 day",0.5 mg/dL
same,Ca,"[…], time 28 day",10.5 mg/dL
same,Cl,"[…], time 28 day",102.8 meq/L
same,DBIL,"[…], time 28 day",0.1 mg/dL
same,GLC,"[…], time 28 day",215 mg/dL
same,IP,"[…], time 28 day",6 mg/dL
same,K,"[…], time 28 day",3.6 meq/L
same,LDH,"[…], time 28 day",185.6 IU/L
same,Na,"[…], time 28 day",141.4 meq/L
same,PL,"[…], time 28 day",154 mg/dL
same,RALB,"[…], time 28 day",3.6 g/dL
same,TBIL,"[…], time 28 day",0.2 mg/dL
same,TC,"[…], time 28 day",71.6 mg/dL
same,TG,"[…], time 28 day",129.8 mg/dL
same,TP,"[…], time 28 day",6.3 g/dL
same,gamma-GTP,"[…], time 28 day",0.6 IU/L

# From ChEMBL document CHEMBL3885861, “Open TG-GATES”
